# What was measured:
# S24 GBMSCs = test: Intratumoral microinjection of sulforhodamine 101 (SR101): dye distribution in TM-connected tumor cell network; assay type: in vivo, mouse; settings: SR101 100 μM co-injected with 100 μM CBX, 120 min after injection; FIG. 7G
# Experimental: For intratumoral microinjection of sulforhodamine 101 (SR101, Molecular Probes, S-359), 50 nl of 100 μM SR101 (with or without 100 μM CBX, Sigma-Aldrich, C4790) were injected with a very thin glass pipette into tumor regions of similar cellular densities, >90 days after tumor injection.
# For in vivo imaging data, TM numbers, branches/TM and connections/cell were counted manually, and TM lengths were measured manually in the slice mode in Imaris. For quantification and analysis of tumor cells/TMs before and after radiotherapy, cells were counted in the same regions before radiation or sham radiation, and at different time points afterwards. Cells without a TM-connection were defined as “non-connected” and cells with at least one TM-connection(s) as “connected”. To analyze the number of TMs before and after irradiation, the TMs of individual, identical cells were counted at both time points. Ratios were calculated to determine the relative changes of cell and TM numbers over time. For the measurement of tumor volumes in BT088 tumors before and after radiotherapy, two regions were analyzed per animal using the surface function of Imaris. The mean speed of tumor cell invasion in S24 shControl vs. shGAP-43 tumors was determined by analysis of three consecutive imaging time points within a 24 hour time interval in vivo. […] They were connected to tracks and the mean track speed was calculated. […]
# [1] = tested on: S24 GBMSC astrocytoma cells; test: In vivo calcium imaging with MPLSM: intercellular calcium waves (frequency, synchronicity of calcium peaks) in tumor cells; parameters: species or system mouse
# Experimental: The following small molecule calcium indicators were used: for GFP-transfected tumor cells: 2 mM Rhod-2AM (life technologies, R-1244); for RFP-transfected: 2 mM Fluo-4AM (life technologies, F-14201). The dissolved dyes were applied to the brain surface for 45 min. Regions with a similar tumor cell density were used. […] Pharmacological gap junction inhibition was achieved by superfusion with the gap junction inhibitor CBX (100 μM; control substance: extracellular saline; n=3 mice per group).
# Two genetically-encoded calcium indicators were lentivirally transduced to GBMSCs: (A) The Lck-GCaMP3 sensor in the rrl-CAG-IGC3 vector (CAG promoter to control expression of DsRed and the Ca^2+ sensor that monitors near-membrane changes in [Ca^2+]i). (B) The radiometric calcium sensor Twitch-3 was used to determine intracellular calcium concentrations by Förster Resonance Energy Transfer (FRET) as known in the art.
# Tumor cells or non-malignant brain astrocytes were marked manually by the use of the ROI Manager of ImageJ. Mean gray values were measured over time. […] Local maxima of calcium signals were detected by the findpeaks function (signal package, Octave-Forge). Thus, the number of calcium peaks of each cell (N) could be determined and the frequency (f) was calculated. The frequency was standardized for the cell number of each region to ensure comparability. Synchronous cells, the number of synchronous communications, and the time point of the synchronous firing were determined. Due to the fact that the images were recorded via a line mode, which leads to a latency of signal detection, the analysis was done in a window of 2 frames around each peak. This allowed to assess the synchronicity S (S∈R^+∪{0}), which was defined as the fraction of the whole number of synchronous cells (N_Syn) divided by the number of calcium peaks for the given cell (N_Ca). In case the cells were not active, a synchronicity of zero was allotted.
# For example, in a system with a synchronicity of 1, a firing cell interacts with a second one. […]
# normal brain astrocytes = test: In vivo calcium imaging with MPLSM: calcium waves in co-registered normal brain astrocytes; parameters: species or system mouse; settings: superfusion with suramin 100 μM (ATP receptor blockade); FIG. 8D
# Experimental: The following small molecule calcium indicators were used: for GFP-transfected tumor cells: 2 mM Rhod-2AM (life technologies, R-1244); for RFP-transfected: 2 mM Fluo-4AM (life technologies, F-14201). The dissolved dyes were applied to the brain surface for 45 min. Regions with a similar tumor cell density were used. For the combination of radiotherapy and calcium imaging, mice were pretreated with Fluo-4AM and imaged after awaking with low isoflurane (0.5%). One hour after radiotherapy, the same regions were imaged again to detect changes in calcium activity. Pharmacological gap junction inhibition was achieved by superfusion with the gap junction inhibitor CBX (100 μM; control substance: extracellular saline; n=3 mice per group). […]
# Tumor cells or non-malignant brain astrocytes were marked manually by the use of the ROI Manager of ImageJ. Mean gray values were measured over time. […] Local maxima of calcium signals were detected by the findpeaks function (signal package, Octave-Forge). Thus, the number of calcium peaks of each cell (N) could be determined and the frequency (f) was calculated. […] Synchronous cells, the number of synchronous communications, and the time point of the synchronous firing were determined. Due to the fact that the images were recorded via a line mode, which leads to a latency of signal detection, the analysis was done in a window of 2 frames around each peak. […]
smiles,measurement,setting,value
"CC1(C)[C@@H](OC(=O)CCC(=O)O)CC[C@]2(C)[C@H]3C(=O)C=C4[C@@H]5C[C@@](C)(C(=O)O)CC[C@]5(C)CC[C@@]4(C)[C@]3(C)CC[C@@H]12 [CBX, carbenoxolone]",distribution of sulforhodamine 101 in the TM-connected tumor cell network,S24 GBMSCs,inhibited
same,frequency and synchronicity of ICWs in GBMSC astrocytoma cells,"[1]; brain superfusion with 100 μM carbenoxolone (CBX) vs. extracellular saline, S24, FIG. 7E",reduced
"NCCOB(c1ccccc1)c1ccccc1 [2-APB, 2-aminoethoxydiphenyl borate]",ICWs between astrocytoma cells,"[1]; superfusion with 2-APB 100 μM (inhibitor of IP3 receptors), FIG. 8D",reduced ICWs
Cc1ccc(C(=O)Nc2ccc(S(=O)(=O)O)c3cc(S(=O)(=O)O)cc(S(=O)(=O)O)c23)cc1NC(=O)c1cccc(NC(=O)Nc2cccc(C(=O)Nc3cc(C(=O)Nc4ccc(S(=O)(=O)O)c5cc(S(=O)(=O)O)cc(S(=O)(=O)O)c45)ccc3C)c2)c1 [suramin],ICWs in malignant astrocytic cells,"[1]; superfusion with suramin 100 μM (ATP receptor blockade), FIG. 8D",reduced ICWs
same,ICWs in normal astrocytic cells,normal brain astrocytes,reduced ICWs
